Assay results reported in patent US9796711B2, “Substituted pyrazolo[3,4-b]pyridin-6-carboxylic acids and method of use” (AbbVie S.àr.l., priority 2015, dated 2017).

Experiments:
ΔF508-CFTR [1] = target: T1, ΔF508-CFTR (Homo sapiens, UniProt P13569, DEL508-508); experiment: CFTR cell surface levels using HRP-tagged ΔF508-CFTR expressing CFBE cells, in the presence of a co-corrector; assay type: cell-based; conditions: HRP-tagged ΔF508-CFTR expressing CFBE cells, in the presence of 3 μM co-corrector; for EC50: read-out: EC50
T1 construct: host or cells: CFBE41o-, doxycycline-inducible
Method in brief: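 Cells were seeded with 0.5 μg/mL doxycycline and held 68 h at 37 °C. Test compounds plus 3 μM co-corrector (final 0.1% DMSO) were then added for 20 h at 33 °C. Washed cells received HRP substrate, and luminescence was normalized between DMSO and 3 μM co-corrector controls.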

ΔF508-CFTR [2] = target: T1, ΔF508-CFTR; experiment: CFTR cell surface levels using HRP-tagged ΔF508-CFTR expressing CFBE cells, intrinsic corrector capacity; assay type: cell-based; conditions: HRP-tagged ΔF508-CFTR CFBE41o- cells, compounds alone (intrinsic corrector capacity), 20 hours at 33° C.; for % Activation: positive control 3 μM corrector; for EC50: read-out: EC50
Method in brief: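 Here the cells express ΔF508-CFTR with horseradish peroxidase inserted in extracellular loop 4, so only rescued channel at the surface gives luminescent signal. Compounds act on their own, 20 h at the reduced temperature of 33 °C; values are percent activity relative to DMSO and a 3 μM corrector.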

T1 sequence (P13569 with tags, fused parts or gaps DEL508-508): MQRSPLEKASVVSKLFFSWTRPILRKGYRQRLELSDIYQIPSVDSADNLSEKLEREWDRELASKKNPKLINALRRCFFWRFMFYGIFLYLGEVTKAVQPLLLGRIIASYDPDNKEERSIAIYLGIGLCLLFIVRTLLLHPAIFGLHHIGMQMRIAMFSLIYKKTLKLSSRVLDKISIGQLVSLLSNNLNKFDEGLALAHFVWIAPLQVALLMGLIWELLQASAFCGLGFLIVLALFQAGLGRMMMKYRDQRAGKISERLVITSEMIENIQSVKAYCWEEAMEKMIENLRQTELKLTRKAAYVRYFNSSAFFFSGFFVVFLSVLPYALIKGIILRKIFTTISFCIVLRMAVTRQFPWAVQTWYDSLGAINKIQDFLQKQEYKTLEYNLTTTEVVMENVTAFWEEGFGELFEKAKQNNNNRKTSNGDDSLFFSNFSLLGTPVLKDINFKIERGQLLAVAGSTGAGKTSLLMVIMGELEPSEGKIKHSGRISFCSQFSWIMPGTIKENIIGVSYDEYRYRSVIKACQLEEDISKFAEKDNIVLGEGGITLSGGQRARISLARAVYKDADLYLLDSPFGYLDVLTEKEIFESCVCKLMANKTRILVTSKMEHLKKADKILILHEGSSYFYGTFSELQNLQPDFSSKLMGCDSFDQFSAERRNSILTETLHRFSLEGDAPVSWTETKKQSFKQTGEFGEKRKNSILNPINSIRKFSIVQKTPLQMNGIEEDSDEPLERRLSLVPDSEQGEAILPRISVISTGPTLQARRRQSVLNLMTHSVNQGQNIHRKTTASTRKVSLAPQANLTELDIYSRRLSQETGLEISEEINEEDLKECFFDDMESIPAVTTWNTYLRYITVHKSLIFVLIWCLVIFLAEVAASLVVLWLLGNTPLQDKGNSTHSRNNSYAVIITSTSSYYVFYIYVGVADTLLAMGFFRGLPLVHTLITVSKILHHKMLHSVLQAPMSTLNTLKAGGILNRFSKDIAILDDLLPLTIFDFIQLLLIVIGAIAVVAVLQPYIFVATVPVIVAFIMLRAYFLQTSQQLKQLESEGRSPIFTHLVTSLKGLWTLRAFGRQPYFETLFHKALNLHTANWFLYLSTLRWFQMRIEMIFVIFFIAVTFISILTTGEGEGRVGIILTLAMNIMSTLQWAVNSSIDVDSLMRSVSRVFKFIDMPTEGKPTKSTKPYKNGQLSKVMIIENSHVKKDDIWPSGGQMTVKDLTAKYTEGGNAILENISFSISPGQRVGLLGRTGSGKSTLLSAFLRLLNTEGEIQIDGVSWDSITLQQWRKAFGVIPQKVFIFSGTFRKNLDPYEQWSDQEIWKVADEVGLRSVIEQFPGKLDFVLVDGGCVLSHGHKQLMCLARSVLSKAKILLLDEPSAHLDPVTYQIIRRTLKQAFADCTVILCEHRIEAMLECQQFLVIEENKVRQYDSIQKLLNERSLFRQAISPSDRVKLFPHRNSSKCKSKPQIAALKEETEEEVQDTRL

| SMILES | % Activation (ΔF508-CFTR [1]) | EC50 (ΔF508-CFTR [1]) | % Activation (ΔF508-CFTR [2]) | EC50 (ΔF508-CFTR [2]) |
| --- | --- | --- | --- | --- |
| Cc1nn(-c2ccccc2)c2nc(C(=O)O)cc(-c3ccc(N4CCC5(CC4)COC5)cc3)c12 [compound 154, 3-methyl-4-[4-(2-oxa-7-azaspiro[3.5]nonan-7-yl)phenyl]-1-phenyl-1H-pyrazolo[3,4-b]pyridine-6-carboxylic acid] | 353.7% | 748 nM | 153.9% | 918 nM |
| Cc1nn(-c2ccccc2)c2nc(C(=O)O)cc(-c3ccc(N4CC[C@H](C#N)C4)cc3)c12 [compound 155, 4-{4-[(3S)-3-cyanopyrrolidin-1-yl]phenyl}-3-methyl-1-phenyl-1H-pyrazolo[3,4-b]pyridine-6-carboxylic acid] | 399.6% | 909 nM | 203.65% | 1350 nM |
| CC(=O)NC1CCN(c2ccc(-c3cc(C(=O)O)nc4c3c(C)nn4-c3ccccc3)cc2)C1 (stereo not drawn) [compound 156, 4-[4-(3-acetamidopyrrolidin-1-yl)phenyl]-3-methyl-1-phenyl-1H-pyrazolo[3,4-b]pyridine-6-carboxylic acid] | 411.55% | 3160 nM | 175.5% | 3340 nM |
| CC(C)c1nn(-c2cccc(N3CCCC3)c2)c2nc(C(=O)O)cc(-c3ccc(N4CCOCC4)cc3)c12 [compound 157, 4-[4-(morpholin-4-yl)phenyl]-3-(propan-2-yl)-1-[3-(pyrrolidin-1-yl)phenyl]-1H-pyrazolo[3,4-b]pyridine-6-carboxylic acid] | 621% | 485 nM | 388.2% | 459 nM |
| Cc1nn(-c2ccccc2)c2nc(C(=O)O)cc(C(=O)N3CCCCC3)c12 [compound 158, 3-methyl-1-phenyl-4-(piperidine-1-carbonyl)-1H-pyrazolo[3,4-b]pyridine-6-carboxylic acid] | 112.2% | > 10000 nM | 1.521% | > 10000 nM |
| CC(C)c1nn(C2CCC(F)(F)CC2)c2nc(C(=O)O)cc(-c3ccc(N4CCOCC4)cc3)c12 [compound 159, 1-(4,4-difluorocyclohexyl)-4-[4-(morpholin-4-yl)phenyl]-3-(propan-2-yl)-1H-pyrazolo[3,4-b]pyridine-6-carboxylic acid] | 415.33% | 755 nM | 150.16% | 737 nM |
| CC(C)c1nn(-c2cccc(N3CC(C)(C)C3)c2)c2nc(C(=O)O)cc(-c3ccc(N4CCOCC4)cc3)c12 [compound 160, 1-[3-(3,3-dimethylazetidin-1-yl)phenyl]-4-[4-(morpholin-4-yl)phenyl]-3-(propan-2-yl)-1H-pyrazolo[3,4-b]pyridine-6-carboxylic acid] | 544.87% | 329 nM | 318.83% | 447 nM |
| CC(C)c1nn(C2CCCN(CC(F)(F)F)C2)c2nc(C(=O)O)cc(-c3ccc(N4CCOCC4)cc3)c12 (stereo not drawn) [compound 161, 4-[4-(morpholin-4-yl)phenyl]-3-(propan-2-yl)-1-[1-(2,2,2-trifluoroethyl)piperidin-3-yl]-1H-pyrazolo[3,4-b]pyridine-6-carboxylic acid] | 333.87% | 795 nM | 111.83% | 921 nM |
| Cc1cccc(-n2nc(C(C)C)c3c(N4CCCCC4)cc(C(=O)O)nc32)c1 [compound 162, 1-(3-methylphenyl)-4-(piperidin-1-yl)-3-(propan-2-yl)-1H-pyrazolo[3,4-b]pyridine-6-carboxylic acid] | 399.73% | 808 nM | 147.97% | 992 nM |
| CC(C)c1nn([C@@H]2CCC[C@@H](OCc3ccccc3)C2)c2nc(C(=O)O)cc(-c3ccc(N4CCOCC4)cc3)c12 [compound 163, 1-[(1R,3R)-3-(benzyloxy)cyclohexyl]-4-[4-(morpholin-4-yl)phenyl]-3-(propan-2-yl)-1H-pyrazolo[3,4-b]pyridine-6-carboxylic acid] | 554.5% | 423 nM | 232.43% | 525 nM |
| COC1CN(c2cccc(-n3nc(C(C)C)c4c(-c5ccc(N6CCOCC6)cc5)cc(C(=O)O)nc43)c2)C1 [compound 164, 1-[3-(3-methoxyazetidin-1-yl)phenyl]-4-[4-(morpholin-4-yl)phenyl]-3-(propan-2-yl)-1H-pyrazolo[3,4-b]pyridine-6-carboxylic acid] | 608.5% | 375 nM | 359.9% | 675 nM |
| CC(C)c1nn(-c2cccc(N3CCC(F)C3)c2)c2nc(C(=O)O)cc(-c3ccc(N4CCOCC4)cc3)c12 (stereo not drawn) [compound 165, 1-[3-(3-fluoropyrrolidin-1-yl)phenyl]-4-[4-(morpholin-4-yl)phenyl]-3-(propan-2-yl)-1H-pyrazolo[3,4-b]pyridine-6-carboxylic acid] | 533.35% | 515 nM | 350.4% | 794 nM |
| COC(=O)N1CC(c2nn(C3CCCCC3)c3nc(C(=O)O)cc(-c4cnc(N(C)C)nc4)c23)C1 [compound 166, 1-cyclohexyl-4-[2-(dimethylamino)pyrimidin-5-yl]-3-[1-(methoxycarbonyl)azetidin-3-yl]-1H-pyrazolo[3,4-b]pyridine-6-carboxylic acid] | 241.5% | 3260 nM | 68.01% | 3340 nM |
| CC(C)c1nn(-c2cccc(N3CC(F)C3)c2)c2nc(C(=O)O)cc(-c3ccc(N4CCOCC4)cc3)c12 [compound 167, 1-[3-(3-fluoroazetidin-1-yl)phenyl]-4-[4-(morpholin-4-yl)phenyl]-3-(propan-2-yl)-1H-pyrazolo[3,4-b]pyridine-6-carboxylic acid] | 568.2% | 535 nM | 301.1% | 596 nM |
| Cc1nn(-c2ccccc2)c2nc(C(=O)O)cc(-c3ccc(N(C)C4CCOCC4)nc3)c12 [compound 168, 3-methyl-4-{6-[methyl(oxan-4-yl)amino]pyridin-3-yl}-1-phenyl-1H-pyrazolo[3,4-b]pyridine-6-carboxylic acid] | 379.07% | 697 nM | 190.23% | 1290 nM |
| COCCN(C)c1ccc(-c2cc(C(=O)O)nc3c2c(C(C)C)nn3C2CCCCC2)cn1 [compound 170, 1-cyclohexyl-4-{6-[(2-methoxyethyl)(methyl)amino]pyridin-3-yl}-3-(propan-2-yl)-1H-pyrazolo[3,4-b]pyridine-6-carboxylic acid] | 482.4% | 504 nM | 208.6% | 738 nM |
| CC(=O)Nc1ccc(-c2cc(C(=O)O)nc3c2c(C(C)C)nn3C2CCCCC2)cc1 [compound 171, 4-(4-acetamidophenyl)-1-cyclohexyl-3-(propan-2-yl)-1H-pyrazolo[3,4-b]pyridine-6-carboxylic acid] | 450.73% | 1070 nM | 199.67% | 1190 nM |
| COCCN(C)c1cccc(-n2nc(C(C)C)c3c(-c4ccc(N5CCOCC5)cc4)cc(C(=O)O)nc32)c1 [compound 172, 1-{3-[(2-methoxyethyl)(methyl)amino]phenyl}-4[4-(morpholin-4-yl)phenyl]-3-(propan-2-yl)-1H-pyrazolo[3,4-b]pyridine-6-carboxylic acid] | 513.1% | 480 nM | 339.33% | 615 nM |
| Cc1cccc(-n2nc(C(C)C)c3c(N4CCCC4)cc(C(=O)O)nc32)c1 [compound 173, 1-(3-methylphenyl)-3-(propan-2-yl)-4-(pyrrolidin-1-yl)-1H-pyrazolo[3,4-b]pyridine-6-carboxylic acid] | 380.52% | 2530 nM | 182.82% | 2950 nM |
| Cc1cccc(-n2nc(C(C)C)c3c(N4CC(F)C4)cc(C(=O)O)nc32)c1 [compound 174, 4-(3-fluoroazetidin-1-yl)-1-(3-methylphenyl)-3-(propan-2-yl)-1H-pyrazolo[3,4-b]pyridine-6-carboxylic acid] | 260.12% | 2540 nM | 90.21% | 3240 nM |
| Cc1cccc(-n2nc(C(C)C)c3c(-c4ccc(N5CCC(C#N)CC5)nc4)cc(C(=O)O)nc32)c1 [compound 175, 4-[6-(4-cyanopiperidin-1-yl)pyridin-3-yl]-1-(3-methylphenyl)-3-(propan-2-yl)-1H-pyrazolo[3,4-b]pyridine-6-carboxylic acid] | 522.6% | 532 nM | 321.67% | 809 nM |
| CC(C)c1nn(-c2cccc(N(C)C)c2)c2nc(C(=O)O)cc(-c3ccc(N4CCC(C#N)CC4)cc3)c12 [compound 176] | 619.28% | 448 nM | 382.28% | 528 nM |
| CC(C)c1nn(-c2cccc(N(C)C)c2)c2nc(C(=O)O)cc(-c3ccc(N4CCC(C#N)CC4)nc3)c12 [compound 177] | 606.47% | 689 nM | 364.43% | 701 nM |
| CC(C)c1nn(-c2cccc(N3CCOCC3)c2)c2nc(C(=O)O)cc(-c3ccc(N4CCC(C#N)CC4)nc3)c12 [compound 178] | 591% | 458 nM | 415% | 628 nM |
